Results published in patent US20240165244A1 (Prelude Therapeutics Incorporated, priority 2022, published 2024).

Tests used:
[1] = target: T1, SMARCA2 (Homo sapiens, UniProt P51531); assay: SMARCA2 HiBiT degradation assay in HeLa cells; assay type: cell-based; conditions: 18 hours, highest concentration 10 μM
T1 construct: SMARCA2-HiBiT knock-in Hela monoclonal cell (CS302366); host or cells: HeLa monoclonal cells with heterozygous HiBiT knock-in at the endogenous SMARCA2 locus
Procedure: (§1) SMARCA2 HiBiT and SMARCA4 HiBiT Degradation Assay
HiBiT peptide knock-in of SMARCA2 in LgBiT expressing HEK293T cells was performed by CRISPR-mediated tagging system as described Promega. The homozygous HiBiT knock-in on c-terminus SMARCA2 was confirmed by sanger sequence. SMARCA2-HiBiT knock-in Hela monoclonal cell (CS302366) and SMARCA4-HiBiT knock-in Hela monoclonal cell (CS3023226) were purchased from Promega. The heterozygous HiBiT-knock-in was confirmed by sanger sequence in both SMARCA2-HiBiT and SMARCA4-HiBiT monoclonal cells.
(§2) SMARCA2 HiBiT and SMARCA4 HiBiT Degradation Assay in HeLa Cells
Dispense 10 ul aliquot of prepared Hela-SMARCA2-HiBiT or Hela-SMARCA4-HiBiT cells (1:1 ratio of cells:Trypan Blue (#1450013, Bio-Rad)) onto cell counting slide (#145-0011, Bio-Rad) and obtain cell density and cell viability using cell counter (TC20, Bio-Rad). Remove appropriate volume of resuspended cells from culture flask to accommodate 2500 cells/well @ 20 μL/well. Transfer Hela-HiBiT cells to 50 mL conical (#430290, Corning). Spin down at 1000 rpm for 5 min using tabletop centrifuge (SPINCHRON 15, Beckman). Discard supernatant and resuspend cell pellet in modified EMEM (#30-2003, ATCC) cell culture media containing 10% FBS (F2422-500ML, Sigma), and 1× Penicillin/Streptomycin ([…]) (30-002-CI, Corning) to a cell density of 125,000 cells/mL. Dispense 20 μLof resuspended Hela-HiBit cells per well in 384-well TC treated plate (#12-565-343, Thermo Scientific) using standard cassette (#50950372, Thermo Scientific) on Multidrop Combi (#5840310, Thermo Scientific) inside laminar flow cabinet.
Compounds were dissolved in DMSO to make 10 mM stock and 3-fold series dilutions were further conducted keeping the highest concentration 10 μM. Dispense test compounds onto plates using digital liquid dispenser (D300E, Tecan). Incubate plates in humidified tissue culture incubator @37° C. for 18 hours. Add 20 μL of prepared Nano-Glo® HiBiT Lytic detection buffer (N3050, Promega) to each well of 384-well plate using small tube cassette (#24073295, Thermo Scientific) on Multidrop Combi, incubate @ RT for 30-60 min. Read plates on microplate reader (Envision 2105, PerkinElmer) using 384 well Ultra-Sensitive luminescence mode. Raw data files and compound information reports are swept into centralized data lake and deconvoluted using automated scripts designed by TetraScience, Inc. Data analysis, curve-fitting and reporting done in Dotmatics Informatics Suite using Screening Ultra module.

[2] = target: T2, SMARCA4 (Homo sapiens, UniProt P51532); assay: SMARCA4 HiBiT degradation assay in HeLa cells; assay type: cell-based; conditions: 18 hours, highest concentration 10 μM
T2 construct: SMARCA4-HiBiT knock-in Hela monoclonal cell (CS3023226); host or cells: HeLa monoclonal cells with heterozygous HiBiT knock-in at the endogenous SMARCA4 locus
T2 sequence (P51532 whole entry): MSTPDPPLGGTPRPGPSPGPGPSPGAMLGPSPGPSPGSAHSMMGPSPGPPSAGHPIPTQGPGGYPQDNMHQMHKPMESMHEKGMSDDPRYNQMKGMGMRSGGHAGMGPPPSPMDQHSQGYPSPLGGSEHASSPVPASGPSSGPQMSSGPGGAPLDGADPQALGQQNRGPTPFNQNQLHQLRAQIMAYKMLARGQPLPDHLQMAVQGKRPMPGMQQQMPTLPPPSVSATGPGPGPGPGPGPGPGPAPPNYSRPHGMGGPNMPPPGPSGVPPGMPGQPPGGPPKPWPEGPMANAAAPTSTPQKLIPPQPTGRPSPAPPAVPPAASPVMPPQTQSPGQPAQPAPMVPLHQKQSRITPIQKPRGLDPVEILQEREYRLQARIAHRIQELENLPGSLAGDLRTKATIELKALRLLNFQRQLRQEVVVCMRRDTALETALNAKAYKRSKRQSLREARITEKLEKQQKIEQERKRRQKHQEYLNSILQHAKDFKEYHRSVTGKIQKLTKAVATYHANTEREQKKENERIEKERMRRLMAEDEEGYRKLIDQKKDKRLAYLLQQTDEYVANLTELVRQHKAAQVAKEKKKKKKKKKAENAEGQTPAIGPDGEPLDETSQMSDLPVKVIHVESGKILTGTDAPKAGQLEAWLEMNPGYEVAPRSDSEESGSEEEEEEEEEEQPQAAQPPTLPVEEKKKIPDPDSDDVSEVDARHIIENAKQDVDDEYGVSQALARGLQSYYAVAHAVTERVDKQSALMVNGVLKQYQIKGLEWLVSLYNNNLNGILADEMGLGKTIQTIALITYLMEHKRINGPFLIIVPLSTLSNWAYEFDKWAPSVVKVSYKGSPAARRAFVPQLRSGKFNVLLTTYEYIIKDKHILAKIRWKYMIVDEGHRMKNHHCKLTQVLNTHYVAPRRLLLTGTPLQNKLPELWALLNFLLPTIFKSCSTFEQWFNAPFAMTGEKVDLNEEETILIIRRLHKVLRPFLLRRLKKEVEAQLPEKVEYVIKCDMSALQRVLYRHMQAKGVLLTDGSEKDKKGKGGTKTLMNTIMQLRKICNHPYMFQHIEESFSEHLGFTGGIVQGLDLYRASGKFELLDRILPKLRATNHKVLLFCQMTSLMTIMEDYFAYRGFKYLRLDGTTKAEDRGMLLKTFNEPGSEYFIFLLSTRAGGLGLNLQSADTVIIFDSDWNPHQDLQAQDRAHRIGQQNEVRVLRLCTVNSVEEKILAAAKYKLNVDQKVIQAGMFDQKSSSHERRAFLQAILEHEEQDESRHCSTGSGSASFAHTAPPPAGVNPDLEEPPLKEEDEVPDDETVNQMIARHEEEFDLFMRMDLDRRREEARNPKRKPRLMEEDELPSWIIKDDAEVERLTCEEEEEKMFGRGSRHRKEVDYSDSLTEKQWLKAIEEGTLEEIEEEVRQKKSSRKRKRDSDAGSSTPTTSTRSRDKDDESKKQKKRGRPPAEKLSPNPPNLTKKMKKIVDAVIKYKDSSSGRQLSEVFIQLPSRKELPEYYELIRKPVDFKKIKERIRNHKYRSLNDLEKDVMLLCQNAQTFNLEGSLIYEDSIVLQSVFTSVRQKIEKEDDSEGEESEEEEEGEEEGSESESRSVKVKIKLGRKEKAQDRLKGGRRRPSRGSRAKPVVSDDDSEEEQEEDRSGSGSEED
Procedure: as §1
HiBiT peptide knock-in of SMARCA2 in LgBiT expressing HEK293T cells was performed by CRISPR-mediated tagging system as described Promega. […] SMARCA2-HiBiT knock-in Hela monoclonal cell (CS302366) and SMARCA4-HiBiT knock-in Hela monoclonal cell (CS3023226) were purchased from Promega.
as §2
Remove appropriate volume of resuspended cells from culture flask to accommodate 2500 cells/well @ 20 μL/well. […] Spin down at 1000 rpm for 5 min using tabletop centrifuge (SPINCHRON 15, Beckman).
Dispense test compounds onto plates using digital liquid dispenser (D300E, Tecan). Incubate plates in humidified tissue culture incubator @37° C. for 18 hours. […] Raw data files and compound information reports are swept into centralized data lake and deconvoluted using automated scripts designed by TetraScience, Inc. Data analysis, curve-fitting and reporting done in Dotmatics Informatics Suite using Screening Ultra module.

T1 sequence (P51531 whole entry): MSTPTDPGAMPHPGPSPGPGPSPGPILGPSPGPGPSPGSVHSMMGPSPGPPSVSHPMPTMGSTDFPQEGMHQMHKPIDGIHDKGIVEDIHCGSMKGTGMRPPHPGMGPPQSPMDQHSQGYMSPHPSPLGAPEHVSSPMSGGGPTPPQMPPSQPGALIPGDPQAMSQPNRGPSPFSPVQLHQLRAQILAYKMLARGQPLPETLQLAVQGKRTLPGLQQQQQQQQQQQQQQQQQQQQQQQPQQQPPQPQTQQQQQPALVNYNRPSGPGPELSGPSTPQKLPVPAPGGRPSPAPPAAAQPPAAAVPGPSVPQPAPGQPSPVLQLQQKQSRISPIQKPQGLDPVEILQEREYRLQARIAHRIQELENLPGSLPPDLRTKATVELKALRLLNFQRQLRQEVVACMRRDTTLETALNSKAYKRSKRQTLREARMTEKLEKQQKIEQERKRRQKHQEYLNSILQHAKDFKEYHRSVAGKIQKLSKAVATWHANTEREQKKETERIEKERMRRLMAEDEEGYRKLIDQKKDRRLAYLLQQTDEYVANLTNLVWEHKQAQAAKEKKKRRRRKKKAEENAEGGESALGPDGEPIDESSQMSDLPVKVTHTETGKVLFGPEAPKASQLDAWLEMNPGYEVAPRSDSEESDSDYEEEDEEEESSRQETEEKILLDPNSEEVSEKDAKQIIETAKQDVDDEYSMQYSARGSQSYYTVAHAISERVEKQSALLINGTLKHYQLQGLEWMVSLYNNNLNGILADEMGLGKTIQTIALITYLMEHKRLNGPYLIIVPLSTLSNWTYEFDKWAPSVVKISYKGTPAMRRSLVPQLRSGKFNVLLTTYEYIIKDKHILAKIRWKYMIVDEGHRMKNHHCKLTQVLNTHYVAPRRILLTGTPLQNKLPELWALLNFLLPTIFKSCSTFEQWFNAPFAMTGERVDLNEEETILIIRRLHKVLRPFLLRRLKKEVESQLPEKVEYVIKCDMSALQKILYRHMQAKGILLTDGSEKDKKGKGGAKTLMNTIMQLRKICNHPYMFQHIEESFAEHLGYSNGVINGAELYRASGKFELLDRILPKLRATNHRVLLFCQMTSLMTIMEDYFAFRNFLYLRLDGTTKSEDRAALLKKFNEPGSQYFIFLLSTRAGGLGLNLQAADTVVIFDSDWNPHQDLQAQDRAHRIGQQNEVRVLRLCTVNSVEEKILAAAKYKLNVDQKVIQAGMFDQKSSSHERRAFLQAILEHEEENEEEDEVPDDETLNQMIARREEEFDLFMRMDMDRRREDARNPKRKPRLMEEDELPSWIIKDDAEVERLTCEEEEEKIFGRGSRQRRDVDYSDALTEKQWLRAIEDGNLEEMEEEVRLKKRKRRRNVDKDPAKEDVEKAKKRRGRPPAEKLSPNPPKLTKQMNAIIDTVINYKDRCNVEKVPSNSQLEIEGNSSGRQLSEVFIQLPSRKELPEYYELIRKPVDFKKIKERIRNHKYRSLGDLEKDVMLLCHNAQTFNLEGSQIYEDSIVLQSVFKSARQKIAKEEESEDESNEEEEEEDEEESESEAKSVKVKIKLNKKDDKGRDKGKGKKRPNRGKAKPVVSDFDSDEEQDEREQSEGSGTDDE

Structure (SMILES) | DC50 [1] [nM] | Dmax [1] [%] | DC50 [2] [nM] | Dmax [2] [%]
Cc1cccc(-c2cc3c(nn2)NC[C@H]2C[C@@H](Oc4ccc(CN5CCN(c6ccc7c(c6)C(=O)N(C6CCC(=O)NC6=O)C7)CC5)cc4)CN32)c1O (stereo partly drawn) [Example 23, 3-(6-(4-(4-(((6aR,8R)-2-(2-hydroxy-3-methylphenyl)-5,6,6a,7,8,9-hexahydropyrrolo[1′,2′:4,5]pyrazino[2,3-c]pyridazin-8-yl)oxy)benzyl)piperazin-1-yl)-1-oxoisoindolin-2-yl)piperidine-2,6-dione] | < 100 | > 75 | < 100 | 50 to 75
Cc1cc(CN2CCN(c3ccc4c(c3)C(=O)N([C@H]3CCC(=O)NC3=O)C4)CC2)cnc1O[C@H]1CN2c3cc(-c4cccc(F)c4O)nnc3NC[C@]2(C)C1 [Example 83, (S)-3-(6-(4-((6-(((6aS,8R)-2-(3-fluoro-2-hydroxyphenyl)-6a-methyl-5,6,6a,7,8,9-hexahydropyrrolo[1′,2′:4,5]pyrazino[2,3-c]pyridazin-8-yl)oxy)-5-methylpyridin-3-yl)methyl)piperazin-1-yl)-1-oxoisoindolin-2-yl)piperidine-2,6-dione] | < 100 | > 75 | < 100 | > 75
CC[C@@]12CNc3nnc(-c4cc(F)cc(F)c4O)cc3N1C[C@H](Oc1ccc(CN3CCN(c4ccc5c(c4)C(=O)N(C4CCC(=O)NC4=O)C5)CC3)cn1)C2 (stereo partly drawn) [Example 63, 3-(6-(4-((6-(((6aR,8R)-2-(3,5-difluoro-2-hydroxyphenyl)-6a-ethyl-5,6,6a,7,8,9-hexahydropyrrolo[1′,2′:4,5]pyrazino[2,3-c]pyridazin-8-yl)oxy)pyridin-3-yl)methyl)piperazin-1-yl)-1-oxoisoindolin-2-yl)piperidine-2,6-dione] | < 100 | > 75 | < 100 | > 75
O=C1CCC(N2Cc3ccc(N4CCN(Cc5cnc(O[C@H]6CN7c8cc(-c9cccc(F)c9O)nnc8NC[C@]7(C(F)F)C6)nc5)CC4)cc3C2=O)C(=O)N1 (stereo partly drawn) [Example 42, 3-(6-(4-((2-(((6aS,8R)-6a-(difluoromethyl)-2-(3-fluoro-2-hydroxyphenyl)-5,6,6a,7,8,9-hexahydropyrrolo [1%2′:4,5]pyrazino[2,3-c]pyridazin-8-yl)oxy)pyrimidin-5-yl)methyl)piperazin-1-yl)-1-oxoisoindolin-2-yl)piperidine-2,6-dione] | < 100 | > 75 | > 1000 | < 50
O=C1CCC(N2Cc3ccc(N4CCN(Cc5ccc(O[C@@H]6C[C@@H]7CNc8nnc(-c9cc(F)cc(F)c9O)cc8N7C6)cn5)CC4)cc3C2=O)C(=O)N1 (stereo partly drawn) [Example 3, 3-(6-(4-((5-(((6aR,8R)-2-(3,5-difluoro-2-hydroxyphenyl)-5,6,6a,7,8,9-hexahydropyrrolo[1′,2′:4,5]pyrazino[2,3-c]pyridazin-8-yl)oxy)pyridin-2-yl)methyl)piperazin-1-yl)-1-oxoisoindolin-2-yl)piperidine-2,6-dione] | < 100 | > 75 | < 100 | 50 to 75
O=C1CC[C@H](N2Cc3ccc(C4CCN(Cc5ccc(O[C@H]6CN7c8cc(-c9cccc(F)c9O)nnc8NC[C@@]7(C(F)F)C6)nc5)CC4)cc3C2=O)C(=O)N1 [Example 90, (S)-3-(6-(1-((6-(((6aR,8R)-6a-(difluoromethyl)-2-(3-fluoro-2-hydroxyphenyl)-5,6,6a,7,8,9-hexahydropyrrolo[1′,2′:4,5]pyrazino[2,3-c]pyridazin-8-yl)oxy)pyridin-3-yl)methyl)piperidin-4-yl)-1-oxoisoindolin-2-yl)piperidine-2,6-dione] | < 100 | > 75 | > 1000 | < 50
O=C1CCC(N2Cc3ccc(N4CCN(Cc5cnc(O[C@H]6CN7c8cc(-c9cccc(F)c9O)nnc8NC[C@@]7(CF)C6)c(F)c5)CC4)cc3C2=O)C(=O)N1 (stereo partly drawn) [Example 70, 3-(6-(4-((5-fluoro-6-(((6aR,8R)-2-(3-fluoro-2-hydroxyphenyl)-6a-(fluoromethyl)-5,6,6a,7,8,9-hexahydropyrrolo[1′,2′:4,5]pyrazino[2,3-c]pyridazin-8-yl)oxy)pyridin-3-yl)methyl)piperazin-1-yl)-1-oxoisoindolin-2-yl)piperidine-2,6-dione] | < 100 | > 75 | < 100 | 50 to 75
O=C1CCC(N2Cc3ccc(N4CCN(Cc5ccc(O[C@@H]6C[C@@H]7CNc8nnc(-c9cc(F)cc(Cl)c9O)cc8N7C6)cc5)CC4)cc3C2=O)C(=O)N1 (stereo partly drawn) [Example 22, 3-(6-(4-(4-(((6aR,8R)-2-(3-chloro-5-fluoro-2-hydroxyphenyl)-5,6,6a,7,8,9-hexahydropyrrolo[1′,2′:4,5]pyrazino[2,3-c]pyridazin-8-yl)oxy)benzyl)piperazin-1-yl)-1-oxoisoindolin-2-yl)piperidine-2,6-dione] | < 100 | > 75 | < 100 | > 75
CC[C@]12CNc3nnc(-c4cccc(C)c4O)cc3N1C[C@H](Oc1cc(C)c(CN3CCC(c4ccc5c(c4)C(=O)N([C@H]4CCC(=O)NC4=O)C5)CC3)cn1)C2 [Example 98, (S)-3-(6-(1-((6-(((6aS,8R)-6a-ethyl-2-(2-hydroxy-3-methylphenyl)-5,6,6a, 7,8,9-hexahydropyrrolo[1′,2′:4,5]pyrazino[2,3-c]pyridazin-8-yl)oxy)-4-methylpyridin-3-yl)methyl)piperidin-4-yl)-1-oxoisoindolin-2-yl)piperidine-2,6-dione] | < 100 | > 75 | < 100 | > 75
O=C1CC[C@H](N2Cc3ccc(N4CCN(Cc5ccc(O[C@@H]6C[C@@H]7CNc8nnc(-c9cccc(Cl)c9O)cc8N7C6)cc5)CC4)cc3C2=O)C(=O)N1 [Example 25, (S)-3-(6-(4-(4-(((6aR,8R)-2-(3-chloro-2-hydroxyphenyl)-5,6,6a,7,8,9-hexahydropyrrolo[1′,2′:4,5]pyrazino[2,3-c]pyridazin-8-yl)oxy)benzyl)piperazin-1-yl)-1-oxoisoindolin-2-yl)piperidine-2,6-dione] | < 100 | > 75 | < 100 | > 75
C[C@@H]1CN(CC2CCN(c3ccc4c(c3)C(=O)N(C3CCC(=O)NC3=O)C4)CC2)C[C@H](C)N1C(=O)[C@@H]1C[C@@H]2CNc3nnc(-c4cccc(F)c4O)cc3N2C1 (stereo partly drawn) [Example 34, 3-(6-(4-(((3R,5S)-4-((6aR,8R)-2-(3-fluoro-2-hydroxyphenyl)-5,6,6a,7,8,9-hexahydropyrrolo[1′,2′:4,5]pyrazino[2,3-c]pyridazine-8-carbonyl)-3,5-dimethylpiperazin-1-yl)methyl)piperidin-1-yl)-1-oxoisoindolin-2-yl)piperidine-2,6-dione] | < 100 | 50 to 75 | > 1000 | < 50
Cc1cc(CN2CCN(c3ccc4c(c3)C(=O)N([C@H]3CCC(=O)NC3=O)C4)CC2)c(C)nc1O[C@H]1CN2c3cc(-c4cccc(F)c4O)nnc3NC[C@@]2(C(F)F)C1 [Example 87, (S)-3-(6-(4-((6-(((6aR,8R)-6a-(difluoromethyl)-2-(3-fluoro-2-hydroxyphenyl)-5,6,6a,7,8,9-hexahydropyrrolo[1′,2′:4,5]pyrazino[2,3-c]pyridazin-8-yl)oxy)-2,5-dimethylpyridin-3-yl)methyl)piperazin-1-yl)-1-oxoisoindolin-2-yl)piperidine-2,6-dione] | < 100 | > 75 | 100 to 1000 | < 50
